Test results taken from PMC5218480 (PLoS ONE, 2017).

Tested on: MV-4-11 cells
Assay: Gene expression microarray analysis (Affymetrix PrimeView) and GSEA
Format: cell-based, human
Design: RFU PODN (11730768_x_at) / Fold change /veh PODN (11730768_x_at) / RFU LINC00158 (11744669_a_at) / Fold change /veh LINC00158 (11744669_a_at) / RFU DUSP10 (11751237_a_at) / Fold change /veh DUSP10 (11751237_a_at) / RFU ID3 (11757404_x_at) / Fold change /veh ID3 (11757404_x_at) / RFU PLEKHG5 (11737974_s_at) / Fold change /veh PLEKHG5 (11737974_s_at) / RFU LRRC4B (11730491_at) / Fold change /veh LRRC4B (11730491_at) / RFU GIMAP4 (11747438_a_at) / Fold change /veh GIMAP4 (11747438_a_at) / RFU KRT8 (11758183_x_at) / Fold change /veh KRT8 (11758183_x_at) / RFU CNN1 (11734310_a_at) / Fold change /veh CNN1 (11734310_a_at) / RFU VPS37D (11726825_at) / Fold change /veh VPS37D (11726825_at) / RFU C10orf10 (11716522_x_at) / Fold change /veh C10orf10 (11716522_x_at) / RFU KIR2DL2 /// KIR2DL4 /// KIR2DL5A /// KIR2DL5B /// KIR2DS1 /// KIR2DS2 /// KIR2DS3 /// KIR2DS4 /// KIR3DL3 /// KIR3DL3 /// KIR3DS1 (11738374_at) / Fold change /veh KIR2DL2 /// KIR2DL4 /// KIR2DL5A /// KIR2DL5B /// KIR2DS1 /// KIR2DS2 /// KIR2DS3 /// KIR2DS4 /// KIR3DL3 /// KIR3DL3 /// KIR3DS1 (11738374_at) / RFU C1QL1 (11718748_at) / Fold change /veh C1QL1 (11718748_at) / RFU TMPRSS4 (11747572_a_at) / Fold change /veh TMPRSS4 (11747572_a_at) / RFU HAMP (11756126_x_at) / Fold change /veh HAMP (11756126_x_at) / RFU RNFT2 (11725882_a_at) / Fold change /veh RNFT2 (11725882_a_at) / RFU NR4A2 (11747474_a_at) / Fold change /veh NR4A2 (11747474_a_at) / RFU ABCC12 (11746883_a_at) / Fold change /veh ABCC12 (11746883_a_at) / RFU TMEM136 (11760407_x_at) / Fold change /veh TMEM136 (11760407_x_at) / RFU CLDN22 /// WWC2 (11732394_at) / Fold change /veh CLDN22 /// WWC2 (11732394_at) / RFU HLA-DPB1 (11760878_x_at) / Fold change /veh HLA-DPB1 (11760878_x_at) / RFU SPINT1 (11716480_a_at) / Fold change /veh SPINT1 (11716480_a_at) / RFU GAP43 (11754022_s_at) / Fold change /veh GAP43 (11754022_s_at) / RFU A4GNT (11735810_at) / Fold change /veh A4GNT (11735810_at) / RFU PRB3 (11715151_x_at) / Fold change /veh PRB3 (11715151_x_at) / RFU TUBB4B (11761932_at) / Fold change /veh TUBB4B (11761932_at) / RFU CAPN14 (11732068_a_at) / Fold change /veh CAPN14 (11732068_a_at) / RFU TMCC2 (11721928_a_at) / Fold change /veh TMCC2 (11721928_a_at) / RFU IRGQ (11745062_a_at) / Fold change /veh IRGQ (11745062_a_at) / RFU FAM174B (11720279_a_at) / Fold change /veh FAM174B (11720279_a_at) / RFU TMPRSS4 (11748680_a_at) / Fold change /veh TMPRSS4 (11748680_a_at) / RFU FAM212B (11763350_a_at) / Fold change /veh FAM212B (11763350_a_at) / RFU PLEKHG5 (11743358_a_at) / Fold change /veh PLEKHG5 (11743358_a_at) / RFU ZSCAN30 (11745921_a_at) / Fold change /veh ZSCAN30 (11745921_a_at) / RFU CMKLR1 (11741424_a_at) / Fold change /veh CMKLR1 (11741424_a_at) / RFU LOC101060620 /// MAPK8IP1 (11723275_at) / Fold change /veh LOC101060620 /// MAPK8IP1 (11723275_at) / RFU SPTSSB (11747773_x_at) / Fold change /veh SPTSSB (11747773_x_at) / RFU PRSS12 (11739890_at) / Fold change /veh PRSS12 (11739890_at) / RFU BIN1 (11741810_x_at) / Fold change /veh BIN1 (11741810_x_at) / RFU WNT11 (11732464_a_at) / Fold change /veh WNT11 (11732464_a_at) / RFU C10orf10 (11716521_a_at) / Fold change /veh C10orf10 (11716521_a_at) / RFU C5orf56 (11738089_at) / Fold change /veh C5orf56 (11738089_at) / RFU CYB561 (11721691_x_at) / Fold change /veh CYB561 (11721691_x_at) / RFU ANKRD19P (11752326_a_at) / Fold change /veh ANKRD19P (11752326_a_at) / RFU OR2T12 /// OR2T33 /// OR2T8 (11738714_s_at) / Fold change /veh OR2T12 /// OR2T33 /// OR2T8 (11738714_s_at) / RFU VCAN (11748164_a_at) / Fold change /veh VCAN (11748164_a_at) / RFU JSRP1 (11732532_at) / Fold change /veh JSRP1 (11732532_at) / RFU KRTAP10-11 (11738290_x_at) / Fold change /veh KRTAP10-11 (11738290_x_at) / RFU MYO3A (11730013_a_at) / Fold change /veh MYO3A (11730013_a_at) / RFU EBF3 (11725865_a_at) / Fold change /veh EBF3 (11725865_a_at) / RFU CAMK2N1 (11719241_x_at) / Fold change /veh CAMK2N1 (11719241_x_at) / RFU C5orf56 (11738088_a_at) / Fold change /veh C5orf56 (11738088_a_at) / RFU OLFML3 (11715873_a_at) / Fold change /veh OLFML3 (11715873_a_at) / RFU LOC100653217 /// NTM (11731650_a_at) / Fold change /veh LOC100653217 /// NTM (11731650_a_at) / RFU MAPK11 (11762145_a_at) / Fold change /veh MAPK11 (11762145_a_at) / RFU FIZ1 (11724087_x_at) / Fold change /veh FIZ1 (11724087_x_at) / RFU OASL (11726364_x_at) / Fold change /veh OASL (11726364_x_at) / RFU SOX15 (11748057_x_at) / Fold change /veh SOX15 (11748057_x_at) / RFU CD79A (11719716_a_at) / Fold change /veh CD79A (11719716_a_at) / RFU HIST1H1D (11736915_at) / Fold change /veh HIST1H1D (11736915_at) / RFU CASKIN2 (11723855_a_at) / Fold change /veh CASKIN2 (11723855_a_at) / RFU LOC730098 (11760151_x_at) / Fold change /veh LOC730098 (11760151_x_at) / RFU OR4N2 (11742367_at) / Fold change /veh OR4N2 (11742367_at) / RFU PRRT2 (11749266_a_at) / Fold change /veh PRRT2 (11749266_a_at) / RFU SNX32 (11753110_a_at) / Fold change /veh SNX32 (11753110_a_at) / RFU CDHR5 (11726645_a_at) / Fold change /veh CDHR5 (11726645_a_at) / RFU RCAN1 (11760418_a_at) / Fold change /veh RCAN1 (11760418_a_at) / RFU FAM167A (11723789_a_at) / Fold change /veh FAM167A (11723789_a_at) / RFU FAM26E (11764081_at) / Fold change /veh FAM26E (11764081_at) / RFU ISYNA1 (11749810_s_at) / Fold change /veh ISYNA1 (11749810_s_at) / RFU ACY1 (11761880_at) / Fold change /veh ACY1 (11761880_at) / RFU 11764098_at / Fold change /veh 11764098_at / RFU SAMD14 (11745864_x_at) / Fold change /veh SAMD14 (11745864_x_at) / RFU NPB (11741838_a_at) / Fold change /veh NPB (11741838_a_at) / RFU TMPRSS6 (11731388_a_at) / Fold change /veh TMPRSS6 (11731388_a_at) / RFU KRTAP10-2 (11738614_at) / Fold change /veh KRTAP10-2 (11738614_at) / RFU ARHGAP8 /// PRR5-ARHGAP8 (11727945_x_at) / Fold change /veh ARHGAP8 /// PRR5-ARHGAP8 (11727945_x_at) / RFU KRTAP5-7 /// NADSYN1 (11734609_at) / Fold change /veh KRTAP5-7 /// NADSYN1 (11734609_at) / RFU RASL12 (11751679_a_at) / Fold change /veh RASL12 (11751679_a_at) / RFU CDKN2B (11736163_a_at) / Fold change /veh CDKN2B (11736163_a_at) / RFU PRF1 (11729649_at) / Fold change /veh PRF1 (11729649_at) / RFU, ZNF638 /// ZNF638-IT1 / Fold change vs veh, ZNF638 /// ZNF638-IT1 / RFU, PANK3 / Fold change vs veh, PANK3 / RFU, SH3YL1 / Fold change vs veh, SH3YL1 / RFU, ZEB2 / Fold change vs veh, ZEB2 / RFU, NRIP1 / Fold change vs veh, NRIP1 / RFU, PTTG1IP / Fold change vs veh, PTTG1IP / RFU, CAPN2 / Fold change vs veh, CAPN2 / RFU, MED14 / Fold change vs veh, MED14 / RFU, SNORA58 / Fold change vs veh, SNORA58 / RFU, C1orf63 / Fold change vs veh, C1orf63 / RFU, LRRFIP1 / Fold change vs veh, LRRFIP1 / RFU, NDUFAF7 / Fold change vs veh, NDUFAF7 / RFU, SLC12A2 / Fold change vs veh, SLC12A2 / RFU, IBTK / Fold change vs veh, IBTK / RFU, ESF1 / Fold change vs veh, ESF1 / Fold change vs veh, TMEM50B / RFU, TAOK1 / Fold change vs veh, TAOK1 / RFU, ACBD3 / Fold change vs veh, ACBD3 / RFU, TMA16 / Fold change vs veh, TMA16 / RFU, RWDD3 / Fold change vs veh, RWDD3 / RFU, BCAT1 / Fold change vs veh, BCAT1 / RFU, EDEM3 / Fold change vs veh, EDEM3 / RFU, TMEM33 / Fold change vs veh, TMEM33 / RFU, WDR75 / Fold change vs veh, WDR75 / RFU, AHCTF1 / Fold change vs veh, AHCTF1 / RFU, TFRC / Fold change vs veh, TFRC / RFU, ZDHHC17 / Fold change vs veh, ZDHHC17 / RFU, NOM1 / Fold change vs veh, NOM1 / RFU, ARL8B / Fold change vs veh, ARL8B / RFU, ZBTB11 / Fold change vs veh, ZBTB11 / RFU, TAMM41 / Fold change vs veh, TAMM41 / RFU, KIAA1704 /// LOC100996395 / Fold change vs veh, KIAA1704 /// LOC100996395 / RFU, ING1 / Fold change vs veh, ING1 / RFU, TRMT61B / Fold change vs veh, TRMT61B / RFU, FUBP3 / Fold change vs veh, FUBP3 / RFU, TP53 / Fold change vs veh, TP53 / RFU, TNKS2 / Fold change vs veh, TNKS2 / RFU, ZFP14 / Fold change vs veh, ZFP14 / RFU, ACTR2 / Fold change vs veh, ACTR2 / RFU, PPP3R1 / Fold change vs veh, PPP3R1 / RFU, PIK3R1 / Fold change vs veh, PIK3R1 / RFU, HNRNPA1 / Fold change vs veh, HNRNPA1 / RFU, RNF170 / Fold change vs veh, RNF170 / RFU, ZNF28 / Fold change vs veh, ZNF28 / RFU, RNGTT / Fold change vs veh, RNGTT / RFU, OGT / Fold change vs veh, OGT / RFU, BRD1 / Fold change vs veh, BRD1 / RFU, MARS / Fold change vs veh, MARS / RFU, ZNF655 / Fold change vs veh, ZNF655 / RFU, FAHD1 / Fold change vs veh, FAHD1 / RFU, BDP1 / Fold change vs veh, BDP1 / RFU, LRRCC1 / Fold change vs veh, LRRCC1 / RFU, ARID1A / Fold change vs veh, ARID1A / RFU, ZNF146 / Fold change vs veh, ZNF146 / RFU, ZNF330 / Fold change vs veh, ZNF330 / RFU, GPN3 / Fold change vs veh, GPN3 / RFU, C9orf123 / Fold change vs veh, C9orf123 / RFU, N4BP2L2 / Fold change vs veh, N4BP2L2 / RFU, ARFIP1 / Fold change vs veh, ARFIP1 / RFU, FAM179B / Fold change vs veh, FAM179B / RFU, BCL10 / Fold change vs veh, BCL10 / RFU, UHRF1BP1L / Fold change vs veh, UHRF1BP1L / RFU, BET1 / Fold change vs veh, BET1 / RFU, CNOT2 / Fold change vs veh, CNOT2 / RFU, ZNF268 / Fold change vs veh, ZNF268 / Fold change vs veh, ZNF507 / RFU, DGCR2 / Fold change vs veh, DGCR2 / RFU, WDSUB1 / Fold change vs veh, WDSUB1 / Fold change vs veh, HSP90B1 /// MIR3652 / RFU, ADSS / Fold change vs veh, ADSS / RFU, GK / Fold change vs veh, GK / RFU, ZNF148 / Fold change vs veh, ZNF148 / RFU, TAF9 / Fold change vs veh, TAF9 / RFU, SLC1A5 / Fold change vs veh, SLC1A5 / RFU, SLMO2 / Fold change vs veh, SLMO2 / RFU, ABCC4 / Fold change vs veh, ABCC4 / RFU, LOC101060439 /// RAP1B / Fold change vs veh, LOC101060439 /// RAP1B / RFU, RFX7 / Fold change vs veh, RFX7 / RFU, GTPBP10 / Fold change vs veh, GTPBP10 / RFU, CNEP1R1 / Fold change vs veh, CNEP1R1 / RFU, BIVM-ERCC5 /// ERCC5 / Fold change vs veh, BIVM-ERCC5 /// ERCC5 / RFU, ILF3 / Fold change vs veh, ILF3 / RFU 11762660_at / Fold change /veh 11762660_at / RFU VCAN (11757783_s_at) / Fold change /veh VCAN (11757783_s_at) / RFU DDX43 (11728927_at) / Fold change /veh DDX43 (11728927_at) / RFU KRT8 (11758188_x_at) / Fold change /veh KRT8 (11758188_x_at) / RFU NKD1 (11759106_at) / Fold change /veh NKD1 (11759106_at) / RFU SRD5A1 (11742802_a_at) / Fold change /veh SRD5A1 (11742802_a_at) / RFU TPSAB1 /// TPSB2 (11721975_s_at) / Fold change /veh TPSAB1 /// TPSB2 (11721975_s_at) / RFU GSTM3 (11746129_a_at) / Fold change /veh GSTM3 (11746129_a_at) / RFU IL23R (11737362_x_at) / Fold change /veh IL23R (11737362_x_at) / RFU TMEM51 (11727254_a_at) / Fold change /veh TMEM51 (11727254_a_at) / RFU PIWIL2 (11732686_x_at) / Fold change /veh PIWIL2 (11732686_x_at) / RFU ORM1 (11744905_x_at) / Fold change /veh ORM1 (11744905_x_at) / RFU CCDC152 (11743942_at) / Fold change /veh CCDC152 (11743942_at) / RFU ECM1 (11717891_a_at) / Fold change /veh ECM1 (11717891_a_at) / RFU IL23R (11748794_a_at) / Fold change /veh IL23R (11748794_a_at) / RFU TNFAIP8L3 (11732012_x_at) / Fold change /veh TNFAIP8L3 (11732012_x_at) / RFU MBOAT4 (11741988_at) / Fold change /veh MBOAT4 (11741988_at) / RFU 11764193_at / Fold change /veh 11764193_at / RFU TMEM53 (11763286_at) / Fold change /veh TMEM53 (11763286_at) / RFU MAGEB2 (11727129_at) / Fold change /veh MAGEB2 (11727129_at) / RFU TMEM200A (11744735_a_at) / Fold change /veh TMEM200A (11744735_a_at) / RFU CCDC152 (11751479_a_at) / Fold change /veh CCDC152 (11751479_a_at) / RFU FAM211A (11726209_a_at) / Fold change /veh FAM211A (11726209_a_at) / RFU RGS16 (11746705_a_at) / Fold change /veh RGS16 (11746705_a_at) / RFU VCAN (11755009_s_at) / Fold change /veh VCAN (11755009_s_at) / RFU RHOB (11743442_s_at) / Fold change /veh RHOB (11743442_s_at) / RFU RGS16 (11720943_a_at) / Fold change /veh RGS16 (11720943_a_at) / RFU RGS16 (11720944_at) / Fold change /veh RGS16 (11720944_at) / RFU, VPS4B / Fold change vs veh, VPS4B / RFU, CREB1 / Fold change vs veh, CREB1 / RFU, DNAJC13 / Fold change vs veh, DNAJC13 / RFU, GNAQ / Fold change vs veh, GNAQ / RFU, CDK5R1 / Fold change vs veh, CDK5R1 / RFU, ZRANB3 / Fold change vs veh, ZRANB3 / RFU, CUL4A / Fold change vs veh, CUL4A / RFU, CCNY / Fold change vs veh, CCNY / RFU, UFL1 / Fold change vs veh, UFL1 / RFU, COG3 / Fold change vs veh, COG3 / RFU, DIAPH2 / Fold change vs veh, DIAPH2 / RFU, SKA2 / Fold change vs veh, SKA2 / RFU, AFF3 / Fold change vs veh, AFF3 / RFU, LMF1 / Fold change vs veh, LMF1 / RFU, IPO11 / Fold change vs veh, IPO11 / RFU, DFFB / Fold change vs veh, DFFB / RFU, FOXP1 / Fold change vs veh, FOXP1 / RFU, CARD8 / Fold change vs veh, CARD8 / RFU, STRN3 / Fold change vs veh, STRN3 / RFU, ADK / Fold change vs veh, ADK / RFU, RASSF2 / Fold change vs veh, RASSF2 / RFU, WIPF1 / Fold change vs veh, WIPF1 / RFU, LARP1B / Fold change vs veh, LARP1B / RFU, RASA1 / Fold change vs veh, RASA1 / RFU, RB1 / Fold change vs veh, RB1 / RFU, PPFIA1 / Fold change vs veh, PPFIA1 / RFU, MAT2A / Fold change vs veh, MAT2A / RFU, CCT5 / Fold change vs veh, CCT5 / RFU, WDR92 / Fold change vs veh, WDR92 / RFU, CUX1 / Fold change vs veh, CUX1 / RFU, TTC7A / Fold change vs veh, TTC7A / RFU, TMEM135 / Fold change vs veh, TMEM135 / RFU, DEPTOR / Fold change vs veh, DEPTOR / RFU, CPM / Fold change vs veh, CPM / RFU, DNAJB6 / Fold change vs veh, DNAJB6 / RFU, CACNA2D3 / Fold change vs veh, CACNA2D3 / RFU, DTX4 / Fold change vs veh, DTX4 / RFU, TFCP2 / Fold change vs veh, TFCP2 / RFU, GMCL1 /// GMCL1P1 / Fold change vs veh, GMCL1 /// GMCL1P1 / RFU, AEBP2 / Fold change vs veh, AEBP2 / RFU, SNHG1 /// SNORD22 /// SNORD25 /// SNORD26 /// SNORD27 /// SNORD28 /// SNORD29 /// SNORD31 / Fold change vs veh, SNHG1 /// SNORD22 /// SNORD25 /// SNORD26 /// SNORD27 /// SNORD28 /// SNORD29 /// SNORD31 / Fold change (Aza/veh), C12orf56 (ProbeSet 11735607_a_at) / Fold change (ACY-1035/veh), C12orf56 (ProbeSet 11735607_a_at) / Fold change (Aza/veh), FGFR1OP (ProbeSet 11751329_s_at) / Fold change (ACY-1035/veh), FGFR1OP (ProbeSet 11751329_s_at) / Fold change (Aza/veh), VPS36 (ProbeSet 11739960_a_at) / Fold change (ACY-1035/veh), VPS36 (ProbeSet 11739960_a_at) / RFU SYPL1 (11715823_x_at) / Fold change /veh SYPL1 (11715823_x_at) / RFU IGFBP7 (11715501_s_at) / Fold change /veh IGFBP7 (11715501_s_at) / RFU REEP3 (11722064_at) / Fold change /veh REEP3 (11722064_at) / RFU IGLL1 (11728026_x_at) / Fold change /veh IGLL1 (11728026_x_at): dose or concentration left out as unconfirmed
Settings: ProbeSet 11747888_a_at; LIST D

In the case of `Nc1ncn([C@@H]2O[C@H](CO)[C@@H](O)[C@H]2O)c(=O)n1` [azacitidine], the “Fold change vs veh, SH3YL1” value is reported as 0.79.
